Measurements from patent US20250186379A1, “METHODS AND AGENTS FOR DECREASING INSULIN RESISTANCE” (Whitehead Institute for Biomedical Research, priority 2021, published 2025).
“Also recorded” adds a separate entry of the source.

Tested on: IR condensates
Experiment: Immunofluorescence for IR in human liver spheroids (primary human hepatocytes)
Assay type: cell-based
Details: 3 nM insulin 10 min
Experimental: For human liver spheroid experiments, primary human hepatocytes from a donor (BioIVT; lot #SMC) were used. Cells were thawed in Cryopreserved Hepatocyte Recovery Media (CHRM, ThermoFisher), spun down at 100 g for 8 min, and resuspended in seeding medium (William's E with 5.5 mM glucose, 2 mM GlutaMax, 15 mM HEPES, 5% FBS, 1% Pen/Strep, 100 nM hydrocortisone, and insulin 200 pM or 800 pM corresponding to the proper experimental group). Spheroids were formed using custom alginate microwells. In brief, 120,000 cells were seeded per well and spun at 50 g for 2 min to seed microwells, and cultured in a volume of 300 uL seeding medium. After 24 hours, cells were switched to maintenance media for the remainder of the experiment. This maintenance media was composed of William's E plus 6.25 μg/ml transferrin, 6.25 ng/ml selenium, 0.125% fatty acid-free BSA, 20 μM linoleic acid, 5.5 mM glucose, 2 mM GlutaMax, 15 mM HEPES, 0.5% Pen/Strep, and 100 nM hydrocortisone. Insulin was supplemented with concentrations adjusted to mimic healthy and disease-inducing states, either 200 pM for physiological or 800 pM for pathologic insulin levels. Media was exchanged every 48 hours throughout the experiment. […]

Row | Compound | IR signal intensity in cytoplasmic and nuclear condensates/puncta (insulin sensitive human liver spheroids) | IR signal in cytoplasmic and nuclear condensates/puncta (insulin resistant human liver spheroids + metformin)
1 | insulin: insulin (Sigma Aldrich, I9278-5ML) used for acute stimulation and chronic physiological or pathological exposure | leads to an increase in IR signal intensity in cytoplasmic and nuclear condensates; also recorded: produced an increase in IR signal intensity in cytoplasmic and nuclear puncta | –
2 | CN(C)C(=N)N=C(N)N [metformin, reference compound] | – | partially rescued
